Assay results taken from patent US20080299041A1, “HETEROCYCLIC INDENE DERIVATIVES AND THEIR RADIOISOTOPE LABELED COMPOUNDS FOR IMAGING BETA-AMYLOID DEPOSITION” (SEOUL NATIONAL UNIVERSITY INDUSTRY FOUNDATION, priority 2007, published 2008).
Each block holds one molecule with its values, some of them ahead of it.

How the values were obtained:
[1] = Biodistribution experiment in mice after tail vein injection of ^18F labeled compound; format: in vivo, Male ICR mice
Description: The penetration of BBB can be estimated by animal experiment. The radiolabeled compounds are intravenously injected to mice, and then the brains are obtained at 2 min, 30 min, and 60 min. The radioactivities of the brain are expressed as the percentage of injected dose per brain weight (gram).
FIG. 2. Biodistribution graph observed in each organ after injection of 2-(4′-[^18F]fluoromethyl)phenyl-1,3-benzothiazole through the mice tail veins. The mice were sacrificed at 2 min, 30 min and 60 min after injection, respectively, and then organs were taken out. The organs were weighed and their radioactivities were measured. The radioactivity distribution in each organ was calculated as the percentage of injected dose per organ weight (gram).
Male ICR mice (n=4/group, 29.9±1.6 g) were injected with 148 kBq/0.1 mL of 2-(4′-[^18F]fluoromethyl)phenyl-1,3-benzothiazole through the tail vein. These injected mice were sacrificed by decapitation 2, 30 and 60 min post-injection. Blood, muscle, lung, liver, spleen, stomach, intestine, brain, and bone were rapidly separated, weighed and counted using a NaI well counter. Results are expressed as percentages of the injected dose per gram of tissue (% ID/g), and represented in FIG. 2. Brain uptake at […] was 5.62±0.28% ID/g and ratio to 30 min was 3.75±0.97, which represent rapid uptake and wash out to and from normal brain.
A comparative mice biodistribution study using 2-(4′-O-(2′-[^18F]Fluoroethyl)hydroxyphenyl)benzothiophene and 2-(4′-O-(3′-[^18F]Fluoropropyl)hydroxyphenyl) benzothiophene was performed according to the same procedure with above Experiment 2.

Aβ1-40 aggregates = Aβ1-40 aggregates (Homo sapiens, UniProt P05067); experiment: In vitro competitive binding assay with 3′-[^125I]I-BTA-1 as radioligand, Aβ1-40 aggregates; details: Aβ aggregates 20 nM, 3 h at room temperature, pH 7.2
Chain of Aβ1-40 aggregates (P05067 672-711 limits assumed): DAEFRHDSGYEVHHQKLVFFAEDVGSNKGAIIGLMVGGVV
Description: (§1) Affinity to β-amyloid can be measured by incubation with β-amyloid precipitate and count the bound form after separation by centrifugation. Kd or Ki values are obtained either by saturation binding assay or competition assay.
(§2) Aβ1-40 or Aβ1-42 peptides were incubated in phosphate buffer (pH=7.2) overnight to prepare precipitates as reported in literatures, and then aliquoted and stored at −70[…]. (Klunk, W. E.; Wang, Y.; Huang, G-F.; Debnath, M. L.; Holt D. P.; Mathis, C. A. Uncharged thioflavin-T derivatives bind to amyloid-beta protein with high affinity and readily enter the brain. Life Sci. 2001, 69(13), […]; Zhuang, Z.-P.; Kung, M.-P.; Wilson, A.; Lee, C.-W.; Plossl, K.; Hou, C.; Holtzman, D. M.; Kung, H. F.; Structure-activity relationship of imidazo[1,2-a]pyridines as ligands for detecting β-amyloid plaques in the brain. J. Med. Chem. 2003; 46(2), 237-243)
(§3) The binding affinities of benzothiophene derivatives to Aβ aggregates were evaluated by competitive binding assays using 3′-[^125I]I-BTA-1 as a radioligand. […] Nonspecific binding was determined by incubation in the presence of 10 μM thioflavin-T. The reaction mixtures were filtered through Whatman GF/B glass filters and washed twice with 3 mL of 10% ethanol aliquots. Filters were counted using a Nat well counter. Ki values of the benzothiophene derivatives were then calculated from the results and represented on Table 1.

Aβ1-42 aggregates = Aβ1-42 aggregates (Homo sapiens, UniProt P05067); experiment: In vitro competitive binding assay with 3′-[^125I]I-BTA-1 as radioligand, Aβ1-42 aggregates; details: Aβ aggregates 20 nM, 3 h at room temperature, pH 7.2
Chain of Aβ1-42 aggregates (P05067 672-713 limits assumed): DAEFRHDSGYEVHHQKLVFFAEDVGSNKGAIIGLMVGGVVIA
Description: as §1, §2, §3

Molecule: [18F]Cc1ccc(-c2nc3ccccc3s2)cc1 [2-(4′-[^18F]fluoromethyl)phenyl-1,3-benzothiazole]
- Bone uptake (in words; in vivo defluorination) ([1]; tail vein): High bone uptake
- Brain uptake ([1]; tail vein, "at min" post-injection (time figure missing)): 5.62±0.28 % ID/g
- Brain uptake ratio to 30 min ([1]; tail vein, early brain uptake / 30 min): 3.75±0.97

Molecule: 2-(4′-fluoromethyl)phenyl-1,3-benzothiazole
- Ki (Aβ1-40 aggregates): 26.9 ± 5.04 nM
- Ki (Aβ1-42 aggregates): 28.1 ± 4.44 nM

Molecule: [18F]CCCOc1ccc(-c2cc3ccccc3s2)cc1 [2-(4′-O-(3′-[^18F]Fluoropropyl)hydroxyphenyl)benzothiophene]
- Blood uptake ([1]; 2 min post-injection): 3.3 ± 0.5 % ID/g
- Bone uptake ([1]; 2 min post-injection): 2.2 ± 0.2 % ID/g
- Brain uptake ([1]; 2 min post-injection): 3.3 ± 0.2 % ID/g
- Fat uptake ([1]; 2 min post-injection): 0.7 ± 0.1 % ID/g
- Heart uptake ([1]; 2 min post-injection): 11.9 ± 0.6 % ID/g
- Intestine uptake ([1]; 2 min post-injection): 2.4 ± 0.2 % ID/g
- Kidney uptake ([1]; 2 min post-injection): 13.5 ± 1.2 % ID/g
- Liver uptake ([1]; 2 min post-injection): 17.0 ± 0.6 % ID/g
- Lung uptake ([1]; 2 min post-injection): 10.2 ± 1.4 % ID/g
- Muscle uptake ([1]; 2 min post-injection): 3.0 ± 0.2 % ID/g
- Spleen uptake ([1]; 2 min post-injection): 4.1 ± 1.2 % ID/g
- Stomach uptake ([1]; 2 min post-injection): 1.8 ± 0.5 % ID/g
- Blood uptake ([1]; 30 min post-injection): 1.4 ± 0.1 % ID/g
- Bone uptake ([1]; 30 min post-injection): 10.7 ± 0.6 % ID/g
- Brain uptake ([1]; 30 min post-injection): 4.0 ± 0.4 % ID/g
- Fat uptake ([1]; 30 min post-injection): 1.9 ± 0.4 % ID/g
- Heart uptake ([1]; 30 min post-injection): 1.8 ± 0.3 % ID/g
- Intestine uptake ([1]; 30 min post-injection): 5.5 ± 0.4 % ID/g
- Kidney uptake ([1]; 30 min post-injection): 4.4 ± 0.4 % ID/g
- Liver uptake ([1]; 30 min post-injection): 6.1 ± 0.6 % ID/g
- Lung uptake ([1]; 30 min post-injection): 2.2 ± 0.6 % ID/g
- Muscle uptake ([1]; 30 min post-injection): 1.6 ± 0.1 % ID/g
- Spleen uptake ([1]; 30 min post-injection): 1.5 ± 0.2 % ID/g
- Stomach uptake ([1]; 30 min post-injection): 1.0 ± 0.4 % ID/g

Molecule: [18F]CCOc1ccc(-c2cc3ccccc3s2)cc1 [2-(4′-O-(2′-[^18F]Fluoroethyl)hydroxyphenyl)benzothiophene]
- Blood uptake ([1]; 2 min post-injection): 3.5 ± 0.2 % ID/g
- Bone uptake ([1]; 2 min post-injection): 2.5 ± 0.2 % ID/g
- Brain uptake ([1]; 2 min post-injection): 5.2 ± 0.4 % ID/g
- Fat uptake ([1]; 2 min post-injection): 0.9 ± 0.3 % ID/g
- Heart uptake ([1]; 2 min post-injection): 8.8 ± 1.0 % ID/g
- Intestine uptake ([1]; 2 min post-injection): 2.7 ± 0.2 % ID/g
- Kidney uptake ([1]; 2 min post-injection): 11.8 ± 0.9 % ID/g
- Liver uptake ([1]; 2 min post-injection): 9.3 ± 1.5 % ID/g
- Lung uptake ([1]; 2 min post-injection): 9.3 ± 1.1 % ID/g
- Muscle uptake ([1]; 2 min post-injection): 2.9 ± 0.3 % ID/g
- Spleen uptake ([1]; 2 min post-injection): 4.4 ± 0.8 % ID/g
- Stomach uptake ([1]; 2 min post-injection): 2.1 ± 0.7 % ID/g
- Blood uptake ([1]; 30 min post-injection): 3.8 ± 0.4 % ID/g
- Bone uptake ([1]; 30 min post-injection): 3.3 ± 0.2 % ID/g
- Brain uptake ([1]; 30 min post-injection): 5.2 ± 0.5 % ID/g
- Fat uptake ([1]; 30 min post-injection): 2.1 ± 1.0 % ID/g
- Heart uptake ([1]; 30 min post-injection): 3.2 ± 0.2 % ID/g
- Intestine uptake ([1]; 30 min post-injection): 7.2 ± 0.6 % ID/g
- Kidney uptake ([1]; 30 min post-injection): 4.1 ± 0.7 % ID/g
- Liver uptake ([1]; 30 min post-injection): 3.9 ± 0.7 % ID/g
- Lung uptake ([1]; 30 min post-injection): 3.4 ± 0.6 % ID/g
- Muscle uptake ([1]; 30 min post-injection): 2.7 ± 0.3 % ID/g
- Spleen uptake ([1]; 30 min post-injection): 2.7 ± 0.5 % ID/g
- Stomach uptake ([1]; 30 min post-injection): 2.5 ± 0.3 % ID/g

- Ki (Aβ1-40 aggregates): 75.7 ± 43.2 nM
- Ki (Aβ1-42 aggregates): 59.9 ± 5.03 nM
Molecule: FCc1ccc(-c2nc3ccccc3o2)cc1 [Benzoxaxole, 2-(4′-fluoromethyl)phenyl-1,3-benzoxazole]
